From publication PMC6768916, “Population pharmacokinetics of fedratinib in patients with myelofibrosis, polycythemia vera, and essential thrombocythemia” (Cancer Chemotherapy and Pharmacology, 2019)
Entries after “also recorded” stand apart in the source; their conditions may differ. Like-named read-outs stand apart in the source and are kept apart here.

Columns and labels:
wild-type JAK2 = tested on: wild-type JAK2; design: method as in PMID 18394554; settings: cited from earlier work
[1] = population pharmacokinetic model in patients with MF, PV or ET; type: in vivo, human
Protocol: The population PK analysis utilized data from one phase 1 study (TED12037 [NCT00631462]), four phase 2 studies (ARD11936 [NCT01420770], ARD12042 [NCT01420783], ARD12181 [NCT01523171], ARD12888 [NCT01692366]) and one phase 3 study (EFC12153 [NCT01437787]). Study design, dosing regimen, and PK sampling information are presented in Supplementary Table 1. These studies were conducted in accordance with the Declaration of Helsinki and the International Council for Harmonisation Guideline for Good Clinical Practice (ICH E6). Written informed consent was obtained from all subjects.
Concentrations of fedratinib in plasma were determined using a validated high-performance liquid chromatography with tandem mass spectrometric detection, with good accuracy (− 6.75–8.8%) and precision (4.84–13.11%). The lower limit of quantification was 1 ng/mL, and the calibration range was 1–1000 ng/mL.
Population PK analyses were conducted using a nonlinear mixed-effect modeling approach, as implemented in the NONMEM software version 7.3.0 (ICON Development Solutions, Ellicott City, MD). Plotting of NONMEM outputs was conducted using the R software (version 3.4.1) and RStudio (version 1.1.456, Boston, MA).
In the development of the structural model, one- to three-compartment models with first-order elimination and different absorption models including first-order absorption with and without lag time, zero-order absorption and transit compartment model were tested to fit the plasma concentration-time data. First-order conditional estimation (FOCE) with interaction method was used for parameter estimation, with natural logarithm-transformed plasma fedratinib concentration data. The inter-subject variability was modeled assuming a log-normal distribution. Residual variability was modeled using an additive model. The model selection was based on the objective function value (OFV) using the log-likelihood ratio test, the goodness of fit criteria and visual predictive check (VPC). Covariate model building was carried out using a stepwise procedure, with significance levels set to 0.01 and 0.001 for the forward inclusion and backward elimination steps, respectively. Missing baseline covariates were imputed as the median value in the study population.
Stability of the final PK parameter estimates and the 95% confidence interval (CI) for the parameters were evaluated using the nonparametric bootstrap approach. With this approach, 500 datasets of size equal to the original dataset were generated by random resampling with replacement from the original dataset. The final model was fit to each of the 500 bootstrap datasets and all the model parameters were estimated for each dataset. The median and nonparametric 95% CI (2.5–97.5 percentiles) of the 500 estimates were calculated for each parameter. The ability of the final population PK model to describe the observed concentration data was evaluated by simulating 200 datasets having the same doses, dosing schedules and sampling times as the original dataset and by performing prediction-corrected VPC [18]. The 5th, 50th and 95th prediction percentiles of the fedratinib concentrations at each binned time point were computed for each simulated trial. Thereafter, the nonparametric 90% CI of the 5th, 50th and 95th prediction percentiles at each binned time point were calculated for the 200 simulated trials.

[2] = cited from earlier work
FLT3 = tested on: FLT3; design: method as in PMID 18394554; settings: cited from earlier work
[3] = tested on: activated mutant JAK2 V617F; design: method as in PMID 18394554; settings: cited from earlier work
[4] = tested on: JAK2 V617F-driven aberrant human PV progenitor erythroid differentiation; design: method as in PMID 18394555; settings: cited from earlier work
[5] = human, in vivo; cited from earlier work
[6] = final model, inter-individual variability

Structure (SMILES): Cc1cnc(Nc2ccc(OCCN3CCCC3)cc2)nc1Nc1cccc(S(=O)(=O)NC(C)(C)C)c1 [fedratinib, Fedratinib]
- selectivity for JAK2 over JAK1, JAK3 and TYK2 (wild-type JAK2): selective for JAK2 over JAK1, JAK3 and TYK2
- IC50 (wild-type JAK2; wild-type JAK2): 3 nM
- increase in exposure (steady-state AUC) with moderate renal impairment vs normal renal function ([1]; 30 ≤ CLcr < 60 mL/min vs CLcr ≥ 90 mL/min): 37%
- increase in exposure (steady-state AUC) with mild renal impairment vs normal renal function ([1]; 60 ≤ CLcr < 90 mL/min vs CLcr ≥ 90 mL/min): 10%
- apparent clearance of a typical PV patient ([1]; CLcr = 78.5 mL/min): 20.0 L/h
- increase in typical AUC with severe renal impairment vs normal renal function ([1]; MF patients, severe renal impairment, N = 3): 59%
- typical value of CL/F, base model ([1]; base model): 13.6 L/h
- typical value of V2/F, base model ([1]; base model): 340 L
- magnitude of changes in V2/F by body weight ([1]; body weight 39.5 to 135 kg): less than 30%
- magnitude of changes in V2/F by dose ([1]; covariate analysis): less than 30%
- linearity of PK with dose ([1]; doses of 200 mg and above): linear, time-invariant PK; also recorded: increased linearly
- CL/F higher in PV patients compared to MF or ET patients ([1]; final model): 54%
- CL/F of a typical MF patient ([1]; final model): 13.0 L/h
- TVCL/F, parameter estimate ([1]; final model): 13.0 L/h
- TVKa, parameter estimate ([1]; final model): 1.57 h⁻¹
- TVQ/F, parameter estimate ([1]; final model): 45.2 L/h
- TVV2/F, parameter estimate ([1]; final model): 311 L
- TVV3/F, parameter estimate ([1]; final model): 1460 L
- V2/F higher in PV patients compared to MF or ET patients ([1]; final model): 87%
- fold higher CL/F in PV patients compared to MF or ET patients ([1]; final model): 1.54 fold
- fold higher V2/F in PV patients compared to MF or ET patients ([1]; final model): 1.87 fold
- TVCL/F, bootstrap median (95% CI) ([1]; final model, 484 of 500 bootstrap replicates): 13.1 (12.4 to 13.9) L/h
- TVALAG1, parameter estimate ([1]; final model, absorption lag time): 0.265 h
- COVCL/F-V2/F, bootstrap median (95% CI) ([1]; final model, bootstrap): 0.193 (0.145 to 0.249)
- PV on V2/F, bootstrap median (95% CI) ([1]; final model, bootstrap): 1.85 (1.40 to 2.42)
- TVALAG1, bootstrap median (95% CI) ([1]; final model, bootstrap): 0.265 (0.264 to 0.321) h
- TVKa, bootstrap median (95% CI) ([1]; final model, bootstrap): 1.64 (1.34 to 2.05) h^−1
- TVQ/F, bootstrap median (95% CI) ([1]; final model, bootstrap): 45.2 (38.5 to 52.9) L/h
- TVV2/F, bootstrap median (95% CI) ([1]; final model, bootstrap): 313 (282 to 343) L
- TVV3/F, bootstrap median (95% CI) ([1]; final model, bootstrap): 1470 (1190 to 1790) L
- Weight on V2/F, bootstrap median (95% CI) ([1]; final model, bootstrap): 0.733 (0.383 to 1.10)
- σ^2 (Log additive), bootstrap median (95% CI) ([1]; final model, bootstrap): 0.194 (0.159 to 0.264)
- ω^2, Ka, bootstrap median (95% CI) ([1]; final model, bootstrap): 1.09 (0.728 to 1.54)
- ω^2, V2/F, bootstrap median (95% CI) ([1]; final model, bootstrap): 0.371 (0.247 to 0.510)
- COVCL/F-V2/F, parameter estimate ([1]; final model, covariance): 0.197
- PV on V2/F, parameter estimate ([1]; final model, covariate factor if PV): 1.87
- Weight on V2/F, parameter estimate ([1]; final model, exponent of (Weight/70.1)): 0.727
- ω^2, Ka, parameter estimate [1, 6]: 1.07
- ω^2, V2/F, parameter estimate [1, 6]: 0.383
- σ^2 (Log additive), parameter estimate ([1]; final model, residual variability): 0.201
- effect of age, body weight, sex, race and liver function on exposure/PK ([1]; population PK covariate analysis): No clinically meaningful effect
- dose proportionality of exposure ([2]; 300–500 mg at steady state): approximately dose-proportional
- mean accumulation ratio ([2]; 300–500 mg once daily, steady state): 2.95–3.88
- time to peak plasma concentration ([2]; human, in vivo, po): 0.5 to 4 h
- dose proportionality of exposure ([2]; human, in vivo): greater than dose-proportional increase
- time to steady state of plasma levels ([2]; once daily dosing): ≤ 15 days
- IC50 (FLT3): 15 nM
- IC50 [3]: 3 nM
- inhibition of JAK2 V617F-driven aberrant human PV progenitor erythroid differentiation [4]: significantly inhibits
- CL/F of healthy subjects [5]: 20.7 to 46.0 L/h
- dose proportionality of exposure [5]: greater than dose-proportional increase
- mean terminal half-life [5]: 62 to 78 h
